According to publication PMC8910872, “A Competition between Hydrogen, Stacking, and Halogen Bonding in N-(4-((3-Methyl-1,4-dioxo-1,4-dihydronaphthalen-2-yl)selanyl)phenyl)acetamide: Structure, Hirshfeld Surface Analysis, 3D Energy Framework Approach, and DFT Calculation” (International Journal of Molecular Sciences, 2022):
“Also recorded” adds a separate entry of the source.

Assays:
[1] = test system: calf thymus DNA; test: Bleomycin-dependent DNA damage assay; format: biochemical; set-up: Bleomycin-dependent DNA damage assay (Abs.): scale not given here; details: 2 mM tested compound; for Bleomycin-dependent DNA damage assay (Abs.): absorbance at 532 nm, means of 3 replicates; for Bleomycin-dependent DNA damage, % of Vitamin C: relative to L-ascorbic acid (2 mM)
From the text: (§1) The cytotoxicity was estimated by the MTT assay against different oligodendrocytes, such as 158 JP and 158 N cells, and 7-ketocholesterol was the control. Different in vitro assays were used to estimate the redox activity, including the dihydroethidium (DHE), 2′,7′-dichlorodihydrofluorescein diacetate (H2-DCFDA), 2,2′-azinobis-3-ethylbenzothioazoline-6-sulphonate (ABTS), 2,2-diphenyl-2-picrylhydrazyl (DPPH), and the bleomycin-induced DNA damage assays.
(§2) Bleomycin-dependent DNA damage
The assay was performed according to the reported method with minor modifications. The reaction mixture contained 0.5 mg/ml calf thymus DNA, 0.05 mg/ml b leomy cin sulfate, 5 mM magnesium chloride, 50 mM ferric chloride, 2 mM tested compound. L-ascorbic acid (2 mM) was used as a positive control. The mixture was incubated at 37 °C for 1 hour. The activity of test compounds was evaluated as malondialdehyde equivalents. Thiobarbituric acid reactive substances, which arose from deoxyribose degradation of DNA were assessed. The reaction was terminated by the addition of 0.05 ml 0.1 M EDTA. The color was developed by adding 0.5 ml of 1% w/v thiobarbituric acid and 0.5 ml of 25% v/v HCl (25% v/v). The tube was capped with a screw cap and heated at 80 °C for 30 min. After cooling in ice water, the mixture was then shaken and centrifuged and the extent of DNA damage was measured by an increase in absorbance at […]
Table S4. The Bleomycin-dependent DNA damage assay.
Compd. No. DNA damage assay % of Vitamin C […]
a ascorbic acid is used as a standard for antioxidant activity; values are means of 3 replicates; b not detected.

[2] = test system: 158N cells; test: H2-DCFDA assay of ROS production (flow cytometry); format: cell-based, Murine; details: for H2-DCFDA assay (% of control), ROS production: 158N cells, mean ± SD; for Effect on ROS level / H2-DCF intensity (in words): 158 N cells, 0–50 μM, vitamin E as control
From the text: as §1
(§3) The levels of ROS were monitored with the H2-DCFDA and DHE assays using flow cytometry. Briefly, 158 N cells were mixed with serial concentrations (0–50 μM) of compound 4 and compound 5 using Vitamin E as the control.
ROS overproduction and O2•− were detected with DCF and DHE, respectively. Cultured cells were treated with trypsin re-suspended in PBS (10^6 cells/mL) and kept in the dark for a half-hour at 37°C with H2-DCFDA or DHE at 10 μM and 2 μM and cells were analyzed by flow cytometry.
The green fluorescence of 2’,7’- dichlorofluorescein resulting from the oxidation of H2-DCFDA was analyzed by flow cytometry and collected through a 520/10-nm bandpass filter. DHE, a non-fluorescent compound, rapidly oxidized in ethidium under the action of O2•− to give 2-hydroxyethidium that intercalates with DNA giving red fluorescence of ethidium collected through a 590/10-nm bandpass filter using an excitation of 488 nm and an emission wavelength of 575 nm.
Flomax (Partec) or FlowJo (Tree Star Inc.) software was used for th e data analysis.
Table S2. Evaluation of the effects of compounds on ROS production by H2-DCFDA assay.
H2-DCFDA assay (% of control)
158N Cells were cultured in the presence of different compounds (C1=10; C2= 20; C3=50 µM); Flow cytometry technique was used to evaluate ROS levels via staining cells with H2-DCF; data are shown as mean ± SD and expressed as % control; the significance of the difference between the DMSO and compounds. Treated cells are indicated by (Mann–Whitney test; *: P < 0.05); vitamin E (50 µM) was used as a positive control.

[3] = test system: 158N cells; test: DHE assay of superoxide anion (O2•−) production (flow cytometry); format: cell-based, Murine; details: for DHE assay (% of positive cells), superoxide anion production: 158N cells, mean ± SD
From the text: as §1, §3
ROS overproduction and O2•− were detected with DCF and DHE, respectively. Cultured cells were treated with trypsin re-suspended in PBS (10^6 cells/mL) and kept in the dark for a half-hour at 37°C with H2-DCFDA or DHE at 10 μM and 2 μM and cells were analyzed by flow cytometry. […]
Flomax (Partec) or FlowJo (Tree Star Inc.) software was used for th e data analysis. […]
Table S3. Evaluation of the effects of compounds on superoxide anions (O2•− ) production […]
DHE assay (% of positive cells)
158N Cells were grown in the presence of different compounds (C1=10; C2= 20; C3=50 µM); Flow cytometry techniques was used to estimate the O2•− production via staining with DHE; Data are shown as mean ± SD and expressed as % control; Significance of the difference between the DMSO and compounds. […]

[4] = test system: 158N cells; test: MTT cytotoxicity assay on 158N oligodendrocytes; format: cell-based, Murine; details: Mus musculus, 0, 1, 10, 20, 50, 100 µM, mean of two parallel experiments, read-out: IC50 (viability of 158N cells)
From the text: as §1
(§4) Murine oligodendrocytes (158N and 158JP) were seeded at 240,000 cells per 24-well plates and were grown using the Dulbecco’s Modified Eagle Medium supplemented with penicillin antibiotics (1% v/v, streptomycin) and fetal bovine serum (5% v/v) and kept at 37 °C an atmosphere containing 5% CO2 [3]. […] Organ ic sel enides 4 and 5 were prepared in DMSO and then diluted with DMEM up to 1 mM.
The MTT assay was carried out on 158N and 158JP cells after one day of incubation with 7kc (50µM)/different concentrations (0, 1, 10, 20, 50, and 100 µM) of the o rganic selenides 4 an d 5 were. In live cells, the MTT is reduced to formazan by the succinate dehydrogenase mitochondrial enzy me. The microplate reader Tecan Sunrise (Tecan, Lyon, France) was used for the reading of the plates at 570 nm. The IC50 values and the maximu m concentrations without toxicity were estimated for organic selenides 4 and 5 from the respective dose-response curves.
Table S1. Effect of the organoselenium compounds on the viability of 158N and 158JP […]
The cytotoxicity was measured after two days of treatment with different concentrations (0, 1, 10, 20, 50, and 100 µM) of the organic selenides using the MTT assay. The IC50 was estimated as the mean of two parallel experiments;

[5] = GPx-like activity assay (NADPH-coupled, H2O2 reduction); format: biochemical; details: ebselen (41 µM) positive control
Protocol: page 19: GPx -like activity The GPx-kit was purchased from Biodiagnostic (Egypt) and used according to the reported method. The sample was prepared by adding assay buffer and NADPH reagent (0 .1 ml; 24 μmol Glutathione, 4.8 μmol NADPH and12 units Glutathione reductase), and organic selenide 4 (0.01 ml, 41 μM). H2O2 (0.8 mM) was then added, and the absorbance was kinetically recorded every 1 min at wavelength 340 nm over three successive minutes. […]/min was calculated. Ebselen (41 μM) was used as the positive control. For colored organoselenium compounds, their absorbance was subtracted at the used wavelength. 0.008 0.007 0.006 0.005 0.004 0.003 0.002 0.001 0 Eb selen 4 5 Figure S11 . GPx-like activity assay (μM. min-1). The reduction of H2O2 by GPx-like activity was tracked by […] of glutathione disulfide (GSSG) and NADPH to glutathion e (GSH, reduced form) and NADP+, respectively. The latter was detected by a decrease in the absorbance at 340 nm. References 1. […], Jacob C. Sulfur, selenium and tellurium pseudopeptides: synthesis and biological evaluation. Bioo rg. Med. Chem. 22(14), 3610-3619 (2014). 2. […]. Synthesis and anti-tumor evaluation of novel organoselenocyanates and symmetrical diselenides dyestuffs . Der Pharma Chemica. 6, 186-193 (2014).

[6] = Bleomycin-induced DNA damage, DPPH and ABTS in vitro radical scavenging assays; details: DPPH, ABTS assays
From the text: as §1, §2
The assay was performed according to the reported method with minor modifications. […] The activity of test compounds was evaluated as malondialdehyde equivalents. Thiobarbituric acid reactive substances, which arose from deoxyribose degradation of DNA were assessed. […] After cooling in ice water, the mixture was then shaken and centrifuged and the extent of DNA damage was measured by an increase in absorbance at […]
a ascorbic acid is used as a standard for antioxidant activity; values are means of 3 replicates; b not detected. […]
The hydrogen atom or electron donation ability of the corresponding compounds was measured by estimating the bleaching of the purple color of a methanolic solution of DPPH. […] After 30 min of incubation in the dark, the absorbance was read against a blank at 517 nm. […] The radical scavenging activity was calculated using the following equ ation : I% = (Ablank- […]

[7] = test system: 158JP cells; test: MTT cytotoxicity assay on 158JP oligodendrocytes; format: cell-based, Murine; details: mean of two parallel experiments
From the text: as §1, §4
The MTT assay was carried out on 158N and 158JP cells after one day of incubation with 7kc (50µM)/different concentrations (0, 1, 10, 20, 50, and 100 µM) of the o rganic selenides 4 an d 5 were. […] The microplate reader Tecan Sunrise (Tecan, Lyon, France) was used for the reading of the plates at 570 nm. […]
The cytotoxicity was measured after two days of treatment with different concentrations (0, 1, 10, 20, 50, and 100 µM) of the organic selenides using the MTT assay. […]

[8] = test system: HepG2; set-up: method as in PMID 29864687, doi:10.1016/j.arabjc.2021.103051; details: read-out: IC50 (cytotoxic activity against HepG2); cited from earlier work
[9] = test system: MCF-7; set-up: method as in PMID 29864687, doi:10.1016/j.arabjc.2021.103051; details: read-out: IC50 (cytotoxic activity against MCF-7); cited from earlier work

Compound	Bleomycin-dependent DNA damage assay (Abs.) [1]	Bleomycin-dependent DNA damage, % of Vitamin C [1] [%]	H2-DCFDA assay (% of control), ROS production ([2]; C3 (50 µM), vitamin E 50 µM)	DHE assay (% of positive cells), superoxide anion production ([3]; C3 (50 µM), vitamin E 50 µM)	IC50 [4] [µM]	Effect on ROS level / H2-DCF intensity (in words) [2]	H2-DCFDA assay (% of control), ROS production ([2]; C1 (10 µM))	H2-DCFDA assay (% of control), ROS production ([2]; C2 (20 µM))	DHE assay (% of positive cells), superoxide anion production ([3]; C1 (10 µM))	DHE assay (% of positive cells), superoxide anion production ([3]; C2 (20 µM))	GPx-like activity (in words) [5]	Pro-oxidant properties compared to vitamin C [6]	IC50 ([7]; Mus musculus, 0, 1, 10, 20, 50, 100 µM, read-out: IC50 (viability of 158JP cells)) [µM]	IC50 (viability of 158JP cells) ([7]; 0, 1, 10, 20, 50, 100 µM)	Effect on O2− production in DHE assay (in words) ([3]; 158 N cells, 0–50 μM)	IC50 [8] [µM]	IC50 [9] [µM]
O=C1O[C@H]([C@@H](O)CO)C(O)=C1O [Vit.C, L-ascorbic acid, reference compound]	989	100	–	–	–	–	–	–	–	–	–	–	–	–	–	–	–
VITAMINE E [reference compound]	–	–	94 ± 5 % of control	74± 1 % of positive cells	–	–	–	–	–	–	–	–	–	–	–	–	–
CC(=O)Nc1ccc([Se]C2=C(C)C(=O)c3ccccc3C2=O)cc1 [Compound 5, N-(4-((3-Methyl-1,4-dioxo-1,4-dihydronaphthalen-2-yl)selanyl)phenyl)acetamide]	581	58.8	6 ± 1 % of control	120 ±4 % of positive cells	11	decrease the H2-DCF intensity; also recorded: decreased the ROS level	7 ± 2 % of control	5 ± 1 % of control	109±12 % of positive cells	121 ±1 % of positive cells	moderate GPx-like activity	up to 60%	–	–	–	–	–
CC(C)CCC[C@@H](C)[C@H]1CC[C@H]2[C@@H]3C(=O)C=C4C[C@@H](O)CC[C@]4(C)[C@H]3CC[C@]12C [Compound 7kc, 7-ketocholesterol, reference compound]	–	–	–	–	37	–	–	–	–	–	–	–	74	–	–	–	–
CC1=C([Se]c2ccc(N)cc2)C(=O)c2ccccc2C1=O [Compound 4]	483	48.8	935 ± 307 % of control	417±31 % of positive cells	27	pronounced pro-oxidant activity	700 ± 143 % of control	854 ± 135 % of control	264 ±25 % of positive cells	406±29 % of positive cells	moderate GPx-like activity	up to 60%	–	no growth inhibition was observed	promote the production of O2^−	0.9	14.7
